Source: patent US20250241892A1, “5-METHOXY-N,N-[…][…] THE TREATMENT OF PSYCHOMOTOR RETARDATION” (GH RESEARCH IRELAND LIMITED, priority 2022, published 2025)

System: patients with postpartum depression (PPD)
Experiment: Clinical trial of inhaled 5-MeO-DMT in postpartum depression
Conditions: 1 patient
Method: The single-arm, open-label clinical trial will involve 15 adult female patients with clinically diagnosed postpartum depression (PPD).
The second dose (12 mg) will only be administered if: • a. A peak experience (total score of ⋅75) has not been achieved following the 6 mg dose, and • b. The 6 mg dose was safe and well-tolerated according to the investigator, • c. Any psychoactive effects (PsE) of the prior dose have subsided, and • d. Pre-dose vital parameters and forced expiratory volume in one second (FEV1) are in normal range, or if outside of the normal range, are not clinically significant according to the investigator. • 3. Similarly, a third dose (18 mg) will only be administered if: • a. A peak experience (total score of ⋅75) has not been achieved following the 12 mg dose, and • b. The 12 mg dose was safe and well-tolerated according to the investigator, and • c. Any PsE of the prior dose have subsided, and • d. Pre-dose vital parameters and forced expiratory volume in one second (FEV1) are in normal range, or if outside of the normal range, are not clinically significant according to the investigator.
The patients will be assessed for a peak psychedelic experience (based on a patient-scored visual analogue scale, the PE scale), sedation, and other endpoints after dosing. Follow-up visits are planned for Day 1, and Day 7 after the dosing day.
The following criteria must be met by all patients considered for clinical trial participation: • 1. Is female and in the age range between 18 and 45 years (inclusive) at screening. • 2. Has a body mass index (BMI) in the range of 18.5 and 35 kg/m^2 (inclusive) at screening. • 3. Meets the trial criteria for PPD as assessed by a trial psychiatrist or registered psychologist: • a. Diagnosis of Major Depressive Disorder without psychotic features, confirmed by the Mini-International Neuropsychiatric Interview (MINI), with peri-partum onset that began no earlier than gestation and no later than the first 4 weeks postpartum. • b. Has a Montgomery-Åsberg Depression Rating Scale (MADRS) total score of equal to or greater than 28 at screening and pre-dose on Day 0. • 6. […] Patients must have a negative pregnancy test at screening and on the pre-test day (Day −1). • 5. Is willing to delay start of other antidepressant or anxiety medication until after the end of the trial at Day 7 and agrees to keep any psychotherapy unchanged during the trial.
A potential patient who meets any of the following key exclusion criteria will be excluded from participation in this trial: • 1. Has, based on history, psychiatric assessment, and evaluation of the MINI, a current or prior diagnosis of bipolar disorder, a manic or hypomanic episode, a psychotic disorder, Major Depressive Disorder (MDD) or other mood disorder with psychotic features, obsessive compulsive disorder, post-traumatic stress disorder (PTSD), autism spectrum disorder, borderline personality disorder, schizophrenia, delusional disorder, paranoid personality disorder, schizoaffective disorder, clinically significant intellectual disability, or any other psychiatric comorbidity that renders the patient unsuitable for the trial according to the investigator's judgment. • 2. Has one or more first or second degree relatives with a current or previously diagnosed bipolar disorder, psychotic disorder or other mood disorder (including MDD) with psychotic features. • 3. Is in the judgement of a trial psychiatrist or registered psychologist, at significant risk for suicide based on history, psychiatric assessment, and evaluation of suicidal ideation and suicidal behaviour based on the Columbia-Suicide Severity Rating Scale (C-SSRS). • 4. Has taken anti-depressive medication within 14 days or 5 half-lives (whichever is longer) prior to dosing (exception: within the last 5 weeks in the case of fluoxetine). • 5.

## COc1ccc2[nH]cc(CCN(C)C)c2c1 [5-MeO-DMT]
Day 7, baseline 1
  BPRS Mannerisms and Posturing score: 1
  BPRS Motor retardation score: 1
  BPRS Suspiciousness score: 1
  BPRS Uncooperativeness score: 1
  BPRS Unusual Thought Content score: 1
Day 7, baseline 2
  BPRS Excitement score: 1
Day 7, baseline 3
  MADRS Inability to Feel score: 0
  MADRS Lassitude score: 0
Day 7, baseline 4
  MADRS Pessimistic Thoughts score: 0
  MADRS Reported sadness score: 0
Day 7, baseline 5
  BPRS Emotional withdrawal score: 1
  MADRS Apparent sadness score: 0
  MADRS Inner Tension score: 1
  MADRS Reduced Sleep score: 0
Day 7, baseline 6
  BPRS Depressive Mood score: 1
  BPRS Guilt feelings score: 1
  BPRS Somatic Concern score: 1
  BPRS Tension score: 1
Day 7, baseline 7
  BPRS Anxiety score: 1
Day 7 vs Day 0
  BIMF functional domain Adjustment Δ (Day 7): 1
  BIMF functional domain Infant Care Δ (Day 7): 0
  BIMF functional domain Management Δ (Day 7): 5
  BIMF functional domain Mother-Child Interaction Δ (Day 7): 2
  BIMF functional domain Psychological Well-being Δ (Day 7): 9
  BIMF functional domain Self Care Δ (Day 7): 4
  BIMF functional domain Social Support Δ (Day 7): 1
  BIMF item 1 (I am a good mother) Δ (Day 7): 0
  BIMF item 2 (I feel rested) Δ (Day 7): 2
  BIMF item 3 (comfortable with the way I've chosen to feed my baby) Δ (Day 7): 0
  BIMF item 4 (My baby and I understand each other) Δ (Day 7): 0
  BIMF item 5 (able to relax and enjoy time with my baby) Δ (Day 7): 1
  BIMF item 6 (people in my life that I can trust to care for my baby) Δ (Day 7): 0
  BIMF item 8 (getting enough adult interaction) Δ (Day 7): 0
  BIMF item 9 (getting enough encouragement from other people) Δ (Day 7): 1
  BIMF item 10 (I trust my own feelings (instincts)) Δ (Day 7): 1
  BIMF item 11 (a little time each week to do something for myself) Δ (Day 7): 1
  BIMF item 12 (taking good care of my baby's physical needs) Δ (Day 7): 0
  BIMF item 13 (taking good care of my physical needs) Δ (Day 7): 1
  BIMF item 14 (good decisions about my baby's health and well being) Δ (Day 7): 0
  BIMF item 15 (My baby and I are getting into a routine) Δ (Day 7): 1
  BIMF item 16 (I worry about how other people judge me) Δ (Day 7): 2
  BIMF item 17 (able to take care of my baby and my other responsibilities) Δ (Day 7): 0
  BIMF item 18 (Anxiety or worry often interferes with my mothering ability) Δ (Day 7): 3
  BIMF item 19 (getting better at taking care of my baby) Δ (Day 7): 1
  BIMF item 20 (satisfied with the job I am doing as a new mother) Δ (Day 7): −1
Day 7 vs baseline
  BPRS Anxiety improvement: 6
  BPRS Blunted affect improvement: 0
  BPRS Conceptual disorganization improvement: 0
  BPRS Depressive Mood improvement: 5
  BPRS Disorientation improvement: 0
  BPRS Emotional withdrawal improvement: 4
  BPRS Excitement improvement: 1
  BPRS Grandiosity improvement: 0
  BPRS Guilt feelings improvement: 5
  BPRS Hallucinatory behaviour improvement: 0
  BPRS Hostility improvement: 0
  BPRS Mannerisms and Posturing improvement: 0
  BPRS Motor retardation improvement: 0
  BPRS Somatic Concern improvement: 5
  BPRS Suspiciousness improvement: 0
  BPRS Tension improvement: 5
  BPRS Uncooperativeness improvement: 0
  BPRS Unusual Thought Content improvement: 0
  MADRS Apparent sadness improvement: 5
  MADRS Concentration Difficulties improvement: 0
  MADRS Inability to Feel improvement: 3
  MADRS Inner Tension improvement: 4
  MADRS Lassitude improvement: 3
  MADRS Pessimistic Thoughts improvement: 4
  MADRS Reduced Sleep improvement: 5
  MADRS Reduced appetite improvement: 0
  MADRS Reported sadness improvement: 4
  MADRS Suicidal Thoughts improvement: 0
Discharge vs baseline
  BPRS Anxiety improvement: 6
  BPRS Blunted affect improvement: 0
  BPRS Conceptual disorganization improvement: 0
  BPRS Depressive Mood improvement: 5
  BPRS Disorientation improvement: 0
  BPRS Emotional withdrawal improvement: 4
  BPRS Excitement improvement: 1
  BPRS Grandiosity improvement: 0
  BPRS Guilt feelings improvement: 5
  BPRS Hallucinatory behaviour improvement: 0
  BPRS Hostility improvement: 0
  BPRS Mannerisms and Posturing improvement: 0
  BPRS Motor retardation improvement: 0
  BPRS Somatic Concern improvement: 5
  BPRS Suspiciousness improvement: 0
  BPRS Uncooperativeness improvement: 0
  BPRS Unusual Thought Content improvement: 0
Discharge, baseline 1
  BPRS Blunted affect score: 1
  BPRS Conceptual disorganization score: 1
  BPRS Disorientation score: 1
  BPRS Grandiosity score: 1
  BPRS Hallucinatory behaviour score: 1
  BPRS Hostility score: 1
  BPRS Mannerisms and Posturing score: 1
  BPRS Motor retardation score: 1
  BPRS Suspiciousness score: 1
  BPRS Uncooperativeness score: 1
  BPRS Unusual Thought Content score: 1
Discharge, baseline 2
  BPRS Excitement score: 1
Discharge, baseline 5
  BPRS Emotional withdrawal score: 1
Discharge, baseline 6
  BPRS Depressive Mood score: 1
  BPRS Guilt feelings score: 1
  BPRS Somatic Concern score: 1
  BPRS Tension score: 1
Discharge, baseline 7
  BPRS Anxiety score: 1
Shortly after administration
  Changes in vital parameters: temporary, clinically non-relevant increase in heart rate and blood pressure
